The record followed here is article PMC3529812 (Journal of immunology (Baltimore, Md. : 1950), 2012).

The test system of assay [1] is 20S proteasome. The experiment in a line: 20S proteasome cleavage assay with LC-MS of cleavage products. Type of assay: biochemical, human. As to conditions: 10 μM lactacystin; substrate 23 mer; compared to uninhibited proteasome reaction.
Assay [2] addresses HLA-A2 (Homo sapiens, UniProt P04439, D140Y/D185E/D98H/E176V/E277Q/G131W/G231S/I119V/I121R/I166T/I218V/L300P/L318F/N151K/N90K/P208A/P217A/Q86G/Q94H/R138H/R169H/T345S). The experiment in a line: T2 HLA-A2 stabilization assay. Type of assay: cell-based.

Consider `CC(=O)N[C@@H](CSC(=O)[C@]1([C@@H](O)C(C)C)NC(=O)[C@H](C)[C@@H]1O)C(=O)O` [lactacystin], for which the “Effect of lactacystin on generation of p373–382 by proteasome” value in assay [1] is “not completely blocked”.
Broadly, the EC50 is the concentration needed to bring the measured effect to its halfway point. Read a low EC50 as a more potent agent. On to `CC(C)C[C@H](NC(=O)[C@@H](N)CO)C(=O)N[C@@H](C)C(=O)N[C@@H](Cc1ccccc1)C(=O)N[C@@H](CC(C)C)C(=O)N1CCC[C@H]1C(=O)N[C@@H](CCC(=O)O)C(=O)N[C@@H](CO)C(=O)N[C@@H](Cc1ccccc1)C(=O)N[C@@H](CC(=O)O)C(=O)O` [p373–382], for which, in assay [2], the half-maximal effective concentration (EC50) turned out to be 1800 nM.
